Measured values reported in BigSolDB 2.1.

C[C@@H]1O[C@@H](O[C@H]2[C@H](Oc3cc(O)c(C(=O)CCc4ccc(O)cc4)c(O)c3)O[C@H](CO)[C@@H](O)[C@@H]2O)[C@H](O)[C@H](O)[C@H]1O
solubility (mole fraction)
Conditions | 298.15 K | 308.15 K | 318.15 K | 328.15 K | 338.15 K
in ethyl acetate | 0.00031 | 0.000369 | 0.000491 | 0.000668 | 0.000776
in water | 2.13e-05 | 3.78e-05 | 7.12e-05 | 0.000166 | 0.000375
